Test results reported in ChEMBL document CHEMBL4002628, “Benzenesulphonamide inhibitors of the cytolytic protein perforin” (Bioorg Med Chem Lett, 2017).
Calls of active or inactive are those of the source. The rule behind the calls is not given here.

Tests used:
[1] = biological target: T1, Perforin-1 (Homo sapiens) (UniProt P14222); assay: Inhibition of recombinant perforin (unknown origin) assessed as decrease in lysis of 51Cr-labelled human Jurkat cells by measuring 51Cr release at 20 uM preincubated for 30 mins followed by cell line addition measured after 4 hrs in presence of 10% mouse serum by gamma counting method relative to control
T1 sequence (whole entry): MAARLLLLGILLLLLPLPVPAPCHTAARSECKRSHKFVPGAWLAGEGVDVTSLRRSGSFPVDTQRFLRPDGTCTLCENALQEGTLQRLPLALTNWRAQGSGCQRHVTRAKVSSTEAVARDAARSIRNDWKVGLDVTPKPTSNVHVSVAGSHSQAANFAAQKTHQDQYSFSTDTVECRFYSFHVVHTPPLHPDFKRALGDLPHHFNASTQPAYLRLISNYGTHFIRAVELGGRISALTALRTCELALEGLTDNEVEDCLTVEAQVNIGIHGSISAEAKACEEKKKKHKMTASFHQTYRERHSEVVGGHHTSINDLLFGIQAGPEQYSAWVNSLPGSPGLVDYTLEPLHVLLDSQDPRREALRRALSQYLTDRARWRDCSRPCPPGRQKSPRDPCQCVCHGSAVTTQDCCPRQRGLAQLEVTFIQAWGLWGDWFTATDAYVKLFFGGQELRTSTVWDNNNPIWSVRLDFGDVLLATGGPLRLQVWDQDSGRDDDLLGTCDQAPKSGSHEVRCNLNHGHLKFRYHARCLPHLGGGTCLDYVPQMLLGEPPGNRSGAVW

[2] = Inhibition of N-terminal His-tagged recombinant human p85alpha expressed in baculovirus infected insect Sf21 cells/recombinant wild type mouse p110alpha using phosphatidylinositol as substrate in presence of [33P]-ATP

SMILES | inhibition [1] | IC50 [2] [µM]
O=C1Cc2cc(-c3ccc(-c4cncc(NS(=O)(=O)c5ccc(F)cc5F)c4)s3)ccc2N1 | Active | 
O=C1NCc2ccc(-c3ccc(-c4cncc(NS(=O)(=O)c5ccc(F)cc5F)c4)s3)cc21 | Active | 
O=C1NCc2cc(-c3ccc(-c4cncc(NS(=O)(=O)c5ccc(F)cc5F)c4)s3)ccc21 | Active | 
CN1Cc2cc(-c3ccc(-c4cncc(NS(=O)(=O)c5ccc(F)cc5F)c4)s3)ccc2C1=O | Active | > 6.25
